Source: PubChem BioAssay (NCI)
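Test compounds were applied to cells in 96-well plates for 48 hours at 5 doses. GI50 = concentration required for 50% inhibition of growth. TGI: total growth inhibition.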

Legend:
Assay in all cases: NCI-60 cell line screen, 48 h
OVCAR-4 ovarian = system: OVCAR-4 ovarian
U251 CNS = system: U251 CNS
BT-549 breast = system: BT-549 breast
IGROV1 ovarian = system: IGROV1 ovarian
NCI/ADR-RES ovarian = system: NCI/ADR-RES ovarian
K-562 leukemia = system: K-562 leukemia
DU-145 prostate = system: DU-145 prostate
MOLT-4 leukemia = system: MOLT-4 leukemia
NCI-H460 lung = system: NCI-H460 lung
RXF 393 renal = system: RXF 393 renal
MCF7 breast = system: MCF7 breast

| Compound | TGI (OVCAR-4 ovarian) [µM] | TGI (U251 CNS) [µM] | TGI (BT-549 breast) [µM] | TGI (IGROV1 ovarian) [µM] | TGI (NCI/ADR-RES ovarian) [µM] | TGI (K-562 leukemia) [µM] | TGI (DU-145 prostate) [µM] | TGI (MOLT-4 leukemia) [µM] | TGI (NCI-H460 lung) [µM] | TGI (RXF 393 renal) [µM] | TGI (MCF7 breast) [µM] | GI50 (DU-145 prostate) [µM] | GI50 (OVCAR-4 ovarian) [µM] | GI50 (U251 CNS) [µM] | GI50 (BT-549 breast) [µM] | GI50 (IGROV1 ovarian) [µM] | GI50 (NCI/ADR-RES ovarian) [µM] | GI50 (K-562 leukemia) [µM] | GI50 (MOLT-4 leukemia) [µM] | GI50 (RXF 393 renal) [µM] |
| --- | --- | --- | --- | --- | --- | --- | --- | --- | --- | --- | --- | --- | --- | --- | --- | --- | --- | --- | --- | --- |
| c1ccc2sc(SCN(C3CCCCC3)C3CCCCC3)nc2c1 | > 100 | > 100 | > 100 | > 100 | > 100 | > 100 | > 100 | > 100 | > 100 | > 100 |  |  |  |  |  |  |  |  |  |  |
| COc1cc(S(=O)(=O)Nc2nc(-c3ccc(N)cc3)cs2)ccc1Cl | > 100 | > 100 | > 100 | > 100 | > 100 | > 100 | > 100 | > 100 | > 100 | > 100 | > 100 |  |  |  |  |  |  |  |  |  |
| COc1ccc(OC)c(C#Cc2ccc(OC)c(C(=O)NCCc3ccc(F)cc3)c2)c1 | > 100 | > 100 | > 100 | > 100 | > 100 | > 100 | > 100 | > 100 | > 100 |  | > 100 | > 100 |  |  |  |  |  |  |  |  |
| Cc1cc(N(CCCCl)CCCCl)ccc1C=Nc1cccc(Cl)c1 | 26.4 | 32.2 |  | 35 | 33.4 | 22.7 | 27.9 | 21.2 | 22.6 | 35.5 | 49.9 |  |  |  |  |  |  |  |  |  |
| COc1ccc([C@H]2C=C(c3cc(F)c(Cl)cc3Cl)NC(=S)N2)cc1 | > 100 | 95.8 | > 100 | > 100 | > 100 | > 100 | > 100 | > 100 | 54.3 | 79.9 | > 100 |  |  |  |  |  |  |  |  |  |
| CC(C)=CCC[C@](C)(O[C@@H]1O[C@H](CO)[C@@H](O)[C@H](O)[C@H]1O)[C@H]1CC[C@]2(C)[C@@H]1[C@H](O)C[C@@H]1[C@@]3(C)CC[C@H](O)C(C)(C)[C@@H]3[C@@H](O[C@@H]3O[C@H](CO)[C@@H](O)[C@H](O)[C@H]3O)C[C@]12C | > 100 | > 100 | > 100 | > 100 |  | > 100 | > 100 |  | > 100 | > 100 | > 100 |  |  |  |  |  |  |  |  |  |
| COc1cc2c(cc1Oc1ccc(OC)c3c1CC1c4c(cc(OC)c(OC)c4-3)CCN1C)CC1c3c(cc(OC)c(OC)c3-2)CCN1C (stereo not drawn) | 10.4 | 4.19 |  | 18.7 | 18.3 | 3.92 |  | 4.41 | 3.88 | 3.81 | 8.43 |  |  |  |  |  |  |  |  |  |
| O=c1cc(O)c2ccccc2o1 | > 100 | > 100 | > 100 | > 100 | > 100 | > 100 | > 100 | > 100 | > 100 | > 100 | > 100 |  |  |  |  |  |  |  |  |  |
| Cn1c(Sc2ccc(-c3cccnc3)n2C)ccc1-c1cccnc1 | 36.6 | 26.9 | 49.8 | 31.9 | 71.3 | 13.8 | 33.5 | 7.78 | 31.1 | 36.3 | 45.3 |  |  |  |  |  |  |  |  |  |
| CCOC(=O)CCC(C(=O)OCC)n1nnc2ccc(Nc3c(C)[n+]([O-])c4cc(Cl)ccc4[n+]3[O-])cc21 (stereo not drawn) | 39.1 | > 100 | 78.1 | 79 | > 100 | 57.7 | > 100 | > 100 | > 100 | 60.8 | 34.3 |  |  |  |  |  |  |  |  |  |
| COc1cc(O)c2c(c1)C(=O)c1cc(C)cc(O)c1C2=O | > 100 | > 100 |  | > 100 |  | > 100 |  | > 100 | > 100 |  |  |  |  |  |  |  |  |  |  |  |
| CCOC(=O)NC | > 100 | > 100 | > 100 | > 100 | > 100 | > 100 | > 100 |  | > 100 | > 100 | > 100 |  |  |  |  |  |  |  |  |  |
| Cc1c2cccc-2ccc2c1[nH]c1ccc(Br)cc12 | 6.62 | 12.1 | 20.7 | 15 | 38.4 | 11.8 | 22.9 |  | > 100 |  | 19.8 |  |  |  |  |  |  |  |  |  |
| Nc1nnc(N)n1NC(=O)C(=O)Nc1ccc([N+](=O)[O-])cc1 | > 100 | > 100 |  | > 100 |  | > 100 |  | > 100 | > 100 | > 100 |  |  |  |  |  |  |  |  |  |  |
| NNc1ccccc1Cl | > 100 | > 100 | > 100 | > 100 | > 100 | > 100 | > 100 | > 100 | > 100 | > 100 | > 100 |  |  |  |  |  |  |  |  |  |
| Nc1ccc(Nc2c3ccccc3nc3ccccc23)cc1 | > 10 | > 10 | > 10 | > 10 | > 10 | > 10 | > 10 | > 10 | 8.07 | > 10 | > 10 |  |  |  |  |  |  |  |  |  |
| O=C(O)C1=NNC(C(=O)O)=NN1 | > 100 | > 100 |  | > 100 |  | > 100 |  | > 100 | > 100 | > 100 |  |  |  |  |  |  |  |  |  |  |
| O=C1c2ccccc2C(=O)c2c1ccc(C(=O)O)c2-c1ccc2ccccc2c1 | > 100 | 55.4 | 68.3 | 68.3 | > 100 | 85.7 | 46.6 | 53 | > 100 |  | 81.8 |  |  |  |  |  |  |  |  |  |
| Cc1cc(=O)oc2c1cc(OCC(=O)OCCN1CCCCC1)c1occ(C)c12 | > 100 | > 100 |  |  |  | > 100 |  | > 100 | > 100 | > 100 |  |  |  |  |  |  |  |  |  |  |
| CC(CO)(CO)Nc1ncnc2ccccc12 | > 100 | > 100 | > 100 | > 100 | > 100 | > 100 | > 100 | > 100 | > 100 | > 100 |  |  |  |  |  |  |  |  |  |  |
| NC(=O)Nc1cc(O)ccc1N=Nc1ccc(S(=O)(=O)Nc2ccccn2)cc1 | > 100 | > 100 |  | > 100 |  | > 100 |  | > 100 | > 100 |  |  |  |  |  |  |  |  |  |  |  |
| C[n+]1ccc(-c2cc[n+](C)cc2)cc1 | 3.21 | > 70.9 |  | > 38.1 |  | > 100 |  | > 100 | > 33.5 | 3.93 |  |  |  |  |  |  |  |  |  |  |
| Fc1ccc(-c2nnc3sc(COc4ccccc4Cl)nn23)cc1Cl | 78.4 | 67.2 | 64.4 | 62.8 | > 100 | 67.6 | > 100 | > 100 |  | 69.2 |  | 29.8 | 28.2 | 24.9 | 22.9 | 17.7 | 40.8 | 24.6 | 24.5 | 38.1 |
| CC[C@H](C)C1=C(O)[N@+]2([O-])Oc3ccc(-c4c(O)c(O)c(-c5ccc(OC(C)=O)cc5)c(OC(C)=O)c4OC(C)=O)cc3O[C@]2([C@@H](C)CC)C(=O)N1O | 31.5 | > 50 | > 50 | 18.6 | > 50 | 31.5 | > 50 | 35 | > 50 | > 50 | > 50 |  |  |  |  |  |  |  |  |  |
| CC1(O)CC23CC1CCC2(C)C12CCCC(C)(C(=O)O1)C2CC3O (stereo not drawn) | > 100 | > 100 | > 100 | > 100 | > 100 | > 100 | > 100 |  | > 100 |  | > 100 |  |  |  |  |  |  |  |  |  |
| COc1c(Cl)cc(S(=O)O)cc1Cl | > 100 | > 100 |  |  |  | > 100 |  | > 100 | > 100 | > 100 |  |  |  |  |  |  |  |  |  |  |
